Data: EP0306845A2, “Medicinal preparation containing certain derivatives of 6-mercaptopurine, use of these derivatives of 6-mercaptopurine, process for the preparation of the medicinal preparation and some derivatives of 6-mercaptopurine and process for their preparation” (HOECHST AKTIENGESELLSCHAFT, priority 1987, dated 1989)

System: Friend-Leukämie-Virus
Assay: In vivo test in mice infected with Friend leukaemia virus (retrovirus model; spleen weight)
Design: species or system Maus
Conditions: for Wirkung im Vergleich zu Suramin: summary in words of the two experiments of the table
Excerpt: Da für die HIV-Infektion des Menschen kein geeignetes Infektionsmodell bei Labortieren existiert, muß bei der Prüfung von Chemotherapeutika auf Infektionen mit anderen Retroviren zurückgegriffen werden. Sowie die Hemmung der Virusreplikation in vivo aufgrund einer spezifischen Blockierung der RT (= Reverse Transkriptase)-Aktivität untersucht wird, erscheint die Wahl eines solchen Ersatzmodelles gerechtfertigt. Im vorliegenden Fall wurde die Infektion der Maus mit dem Friend-Leukämie-Virus gewählt.
Dazu wurden normale Labormäuse (NMRI = Naval Medical Research Institute) durch intravenöse Injektion mit Friend-Virus enthaltendem Mäuseserum infiziert. Bei den unbehandelten Kontrolltieren entwickelte sich als Symptom der Infektion innerhalb von zwei Wochen eine deutliche Vergrößerung von Milz und Leber. Die Behandlung erfolgte über 10 Tage, beginnend 48 Stunden nach der Infektion. Am 14. Versuchstag wurden die tiere durch Luxation der Halswirbel getötet und geöffnet. Die Milz wurde entnommen und gewogen. Als Meßparameter der therapeutischen Wirksamkeit wurde das Milzgewicht der behandelten Tiere mit dem der unbehandelten Infektionskontrolle in Relation gesetzt.
Während bei uninfizierten ausgewachsenen Labormäusen (20 - 24 g Körpergewicht) die Milz weniger als 1 % des Körpergewichtes wog, erreichte bei infizierten Tieren die Milz am Ende des Versuchs bis zu etwa 10 % des Körpergewichtes. […] Suramin ist die Verbindung der Formel: [drawing 14]

| Compound | Wirkung im Vergleich zu Suramin | further results |
| --- | --- | --- |
| Nc1nc(S)c2ncn([C@@H]3O[C@H](CO)[C@@H](O)[C@H]3O)c2n1 [(2), 2-Amino-6-mercaptopurin-9-D-ribosid] | – | Relat Milzgewicht in % vom Körpergewicht (Versuch 1 (Virus-Verdünnung 1:5000), NMRI mice, 10 x 1,0 mg/Maus i.p., spleen weighed on day 14): 0,5 % vom Körpergewicht |
| OC[C@H]1O[C@@H](n2cnc3c(S)ncnc32)[C@H](O)[C@@H]1O [(1), 6-Mercapto-purin-9-D-ribosid] | gegenüber dem Suramin Vorteile besitzen | – |
| Cc1ccc(C(=O)Nc2ccc(S(=O)(=O)O)c3cc(S(=O)(=O)O)cc(S(=O)(=O)O)c23)cc1NC(=O)c1cccc(NC(=O)Nc2cccc(C(=O)Nc3cc(C(=O)Nc4ccc(S(=O)(=O)O)c5cc(S(=O)(=O)O)cc(S(=O)(=O)O)c45)ccc3C)c2)c1 [Suramin, reference compound] | – | Milzwachstum (infected mice, treatment with the comparison preparation, mostly statistically significant (P 0,05)): Verringerung des Milzwachstums |
| 6-Mercapto-9-[(1-hydroxy-3-isopropoxy-2-propoxy)methyl]-purin [Beispiel 3] | mit Suramin vergleichbar | – |
| 6-Mercapto-9-[1,3-bis-(isopropoxy)-propyl-2-oxymethyl]-purin [Beispiel 2] | gegenüber dem Suramin Vorteile besitzen | – |
